From the kinase profiling compilation of Christmann-Franck et al. (2016)

Tests used:
Assay in all cases: KINOMEscan competition binding
[1] = target: ABL1 (human), P00519 [H396P]
TAOK3 (human) = TAOK3 (human) (UniProt Q9H2K8)
ERBB4 (human) = ERBB4 (human) (UniProt Q15303)
MYLK (human) = MYLK (human) (UniProt Q15746)
[2] = target: ABL1 (human), P00519 [T315I]
PTK2 (human) = PTK2 (human) (UniProt Q05397)
[3] = target: ABL1 (human), P00519 [F317I]
ANKK1 (human) = ANKK1 (human) (UniProt Q8NFD2)
FGR (human) = FGR (human) (UniProt P09769)
PIM3 (human) = PIM3 (human) (UniProt Q86V86)
STK33 (human) = STK33 (human) (UniProt Q9BYT3)
Sequence of STK33 (human) (Q9BYT3 whole entry, looked up): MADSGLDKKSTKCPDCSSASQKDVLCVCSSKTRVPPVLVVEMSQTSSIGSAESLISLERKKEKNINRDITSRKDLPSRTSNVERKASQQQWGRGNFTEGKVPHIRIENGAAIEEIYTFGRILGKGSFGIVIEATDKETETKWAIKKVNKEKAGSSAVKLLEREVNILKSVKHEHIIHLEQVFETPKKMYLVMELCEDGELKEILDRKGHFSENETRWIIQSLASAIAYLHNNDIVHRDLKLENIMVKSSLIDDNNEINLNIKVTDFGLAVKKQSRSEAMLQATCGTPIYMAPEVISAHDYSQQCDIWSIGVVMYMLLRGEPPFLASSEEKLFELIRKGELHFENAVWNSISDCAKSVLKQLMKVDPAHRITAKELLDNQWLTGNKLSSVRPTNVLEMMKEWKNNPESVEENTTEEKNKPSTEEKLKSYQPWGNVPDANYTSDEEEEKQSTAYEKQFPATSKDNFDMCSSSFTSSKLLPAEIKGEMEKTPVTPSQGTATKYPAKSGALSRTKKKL

[4] = target: JAK1 JH2 pseudokinase (human) (UniProt P23458)
PRKACB (human) = PRKACB (human) (UniProt P22694)
RPS6KA4 KD2 (human) = RPS6KA4 KD2 (human) (UniProt O75676)
CDK15 (human) = CDK15 (human) (UniProt Q96Q40)
EPHA4 (human) = EPHA4 (human) (UniProt P54764)
[5] = target: ABL1 (human), P00519 [F317L]
PIK3CA (human) = PIK3CA (human) (UniProt P42336)
Sequence of PIK3CA (human) (P42336 whole entry, looked up): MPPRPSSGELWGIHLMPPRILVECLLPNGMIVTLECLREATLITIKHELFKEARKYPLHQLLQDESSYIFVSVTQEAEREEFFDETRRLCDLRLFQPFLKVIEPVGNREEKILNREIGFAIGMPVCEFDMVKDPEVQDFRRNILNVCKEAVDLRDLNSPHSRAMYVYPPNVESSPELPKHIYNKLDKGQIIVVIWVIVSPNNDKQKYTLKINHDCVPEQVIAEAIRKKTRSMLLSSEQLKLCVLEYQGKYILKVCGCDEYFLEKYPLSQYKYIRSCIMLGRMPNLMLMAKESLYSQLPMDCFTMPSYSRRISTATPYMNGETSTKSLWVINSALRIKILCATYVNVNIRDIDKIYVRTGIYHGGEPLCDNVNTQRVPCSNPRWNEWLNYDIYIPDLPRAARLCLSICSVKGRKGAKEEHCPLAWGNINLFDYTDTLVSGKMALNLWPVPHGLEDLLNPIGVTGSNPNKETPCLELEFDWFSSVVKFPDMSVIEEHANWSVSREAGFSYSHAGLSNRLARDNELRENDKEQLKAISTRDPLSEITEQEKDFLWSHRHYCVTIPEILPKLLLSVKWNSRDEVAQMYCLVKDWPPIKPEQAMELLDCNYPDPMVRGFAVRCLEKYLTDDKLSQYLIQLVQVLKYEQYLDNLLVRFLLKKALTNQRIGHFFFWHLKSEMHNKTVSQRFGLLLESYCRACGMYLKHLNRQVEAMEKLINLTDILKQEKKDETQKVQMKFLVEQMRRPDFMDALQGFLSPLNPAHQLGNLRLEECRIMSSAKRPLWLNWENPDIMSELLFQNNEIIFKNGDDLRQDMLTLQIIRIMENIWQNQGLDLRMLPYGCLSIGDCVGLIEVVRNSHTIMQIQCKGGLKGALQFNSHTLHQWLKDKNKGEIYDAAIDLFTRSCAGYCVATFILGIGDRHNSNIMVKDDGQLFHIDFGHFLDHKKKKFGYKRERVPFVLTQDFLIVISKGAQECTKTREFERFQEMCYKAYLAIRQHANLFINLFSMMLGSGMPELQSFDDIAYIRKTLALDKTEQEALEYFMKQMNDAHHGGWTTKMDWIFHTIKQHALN

CAMK1D (human) = CAMK1D (human) (UniProt Q8IU85)
MERTK (human) = MERTK (human) (UniProt Q12866)
Sequence of MERTK (human) (Q12866 whole entry, looked up): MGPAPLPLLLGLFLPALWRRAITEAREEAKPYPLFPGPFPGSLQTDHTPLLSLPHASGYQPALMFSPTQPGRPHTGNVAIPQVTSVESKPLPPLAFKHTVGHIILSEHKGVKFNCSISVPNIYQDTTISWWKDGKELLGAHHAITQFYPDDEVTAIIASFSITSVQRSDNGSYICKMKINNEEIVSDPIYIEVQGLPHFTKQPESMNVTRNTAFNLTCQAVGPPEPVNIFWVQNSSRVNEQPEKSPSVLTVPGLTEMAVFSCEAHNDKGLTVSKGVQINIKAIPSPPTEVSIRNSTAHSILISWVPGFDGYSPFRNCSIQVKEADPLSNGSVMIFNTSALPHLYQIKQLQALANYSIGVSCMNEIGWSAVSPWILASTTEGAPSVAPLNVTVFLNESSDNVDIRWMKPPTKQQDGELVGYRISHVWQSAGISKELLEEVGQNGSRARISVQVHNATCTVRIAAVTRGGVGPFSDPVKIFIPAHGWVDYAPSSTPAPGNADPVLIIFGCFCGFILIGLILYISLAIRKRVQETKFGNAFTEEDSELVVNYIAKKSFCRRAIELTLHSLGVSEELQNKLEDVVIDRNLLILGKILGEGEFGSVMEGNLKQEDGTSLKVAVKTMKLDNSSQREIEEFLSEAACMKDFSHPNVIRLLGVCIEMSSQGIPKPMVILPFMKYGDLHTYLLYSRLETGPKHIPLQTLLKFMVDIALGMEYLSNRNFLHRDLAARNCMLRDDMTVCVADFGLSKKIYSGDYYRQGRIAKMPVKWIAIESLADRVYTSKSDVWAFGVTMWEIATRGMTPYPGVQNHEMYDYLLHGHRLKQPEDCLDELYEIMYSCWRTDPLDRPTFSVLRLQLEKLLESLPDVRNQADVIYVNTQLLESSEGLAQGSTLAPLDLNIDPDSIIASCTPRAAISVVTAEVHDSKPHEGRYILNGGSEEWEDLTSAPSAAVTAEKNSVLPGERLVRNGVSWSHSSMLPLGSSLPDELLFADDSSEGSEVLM

CIT (human) = CIT (human) (UniProt O14578)
CDK16 (human) = CDK16 (human) (UniProt Q00536)
STK35 (human) = STK35 (human) (UniProt Q8TDR2)
AXL (human) = AXL (human) (UniProt P30530)
TAOK1 (human) = TAOK1 (human) (UniProt Q7L7X3)
Sequence of TAOK1 (human) (Q7L7X3 whole entry, looked up): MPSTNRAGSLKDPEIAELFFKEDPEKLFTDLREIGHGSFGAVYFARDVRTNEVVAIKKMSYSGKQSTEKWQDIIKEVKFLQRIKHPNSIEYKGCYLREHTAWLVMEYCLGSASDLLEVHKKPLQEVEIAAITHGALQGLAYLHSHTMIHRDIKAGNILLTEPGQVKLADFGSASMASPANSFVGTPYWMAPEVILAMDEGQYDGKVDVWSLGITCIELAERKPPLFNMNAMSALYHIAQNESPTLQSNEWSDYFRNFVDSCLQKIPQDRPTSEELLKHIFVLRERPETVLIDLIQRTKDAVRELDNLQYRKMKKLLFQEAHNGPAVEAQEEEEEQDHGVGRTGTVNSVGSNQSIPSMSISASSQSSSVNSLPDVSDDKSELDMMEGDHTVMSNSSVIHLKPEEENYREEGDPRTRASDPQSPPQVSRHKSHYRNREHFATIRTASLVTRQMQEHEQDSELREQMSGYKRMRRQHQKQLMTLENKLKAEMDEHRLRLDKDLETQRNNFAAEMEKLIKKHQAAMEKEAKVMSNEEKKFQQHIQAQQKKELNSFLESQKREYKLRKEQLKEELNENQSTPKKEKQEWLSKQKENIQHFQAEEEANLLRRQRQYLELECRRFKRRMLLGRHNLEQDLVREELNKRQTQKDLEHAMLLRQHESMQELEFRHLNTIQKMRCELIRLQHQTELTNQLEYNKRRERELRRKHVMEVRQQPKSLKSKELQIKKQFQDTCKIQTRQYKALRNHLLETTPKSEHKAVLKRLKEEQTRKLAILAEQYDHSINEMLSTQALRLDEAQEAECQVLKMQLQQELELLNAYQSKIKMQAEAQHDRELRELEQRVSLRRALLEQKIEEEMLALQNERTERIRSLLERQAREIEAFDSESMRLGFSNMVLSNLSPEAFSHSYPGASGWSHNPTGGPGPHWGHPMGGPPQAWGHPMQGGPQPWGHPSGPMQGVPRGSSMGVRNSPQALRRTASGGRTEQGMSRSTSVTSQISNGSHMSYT

EPHB4 (human) = EPHB4 (human) (UniProt P54760)
SIK2 (human) = SIK2 (human) (UniProt Q9H0K1)
IRAK3 (human) = IRAK3 (human) (UniProt Q9Y616)
MAPK15 (human) = MAPK15 (human) (UniProt Q8TD08)
MET (human) = MET (human) (UniProt P08581)
ULK3 (human) = ULK3 (human) (UniProt Q6PHR2)
DDR2 (human) = DDR2 (human) (UniProt Q16832)
Sequence of DDR2 (human) (Q16832 whole entry, looked up): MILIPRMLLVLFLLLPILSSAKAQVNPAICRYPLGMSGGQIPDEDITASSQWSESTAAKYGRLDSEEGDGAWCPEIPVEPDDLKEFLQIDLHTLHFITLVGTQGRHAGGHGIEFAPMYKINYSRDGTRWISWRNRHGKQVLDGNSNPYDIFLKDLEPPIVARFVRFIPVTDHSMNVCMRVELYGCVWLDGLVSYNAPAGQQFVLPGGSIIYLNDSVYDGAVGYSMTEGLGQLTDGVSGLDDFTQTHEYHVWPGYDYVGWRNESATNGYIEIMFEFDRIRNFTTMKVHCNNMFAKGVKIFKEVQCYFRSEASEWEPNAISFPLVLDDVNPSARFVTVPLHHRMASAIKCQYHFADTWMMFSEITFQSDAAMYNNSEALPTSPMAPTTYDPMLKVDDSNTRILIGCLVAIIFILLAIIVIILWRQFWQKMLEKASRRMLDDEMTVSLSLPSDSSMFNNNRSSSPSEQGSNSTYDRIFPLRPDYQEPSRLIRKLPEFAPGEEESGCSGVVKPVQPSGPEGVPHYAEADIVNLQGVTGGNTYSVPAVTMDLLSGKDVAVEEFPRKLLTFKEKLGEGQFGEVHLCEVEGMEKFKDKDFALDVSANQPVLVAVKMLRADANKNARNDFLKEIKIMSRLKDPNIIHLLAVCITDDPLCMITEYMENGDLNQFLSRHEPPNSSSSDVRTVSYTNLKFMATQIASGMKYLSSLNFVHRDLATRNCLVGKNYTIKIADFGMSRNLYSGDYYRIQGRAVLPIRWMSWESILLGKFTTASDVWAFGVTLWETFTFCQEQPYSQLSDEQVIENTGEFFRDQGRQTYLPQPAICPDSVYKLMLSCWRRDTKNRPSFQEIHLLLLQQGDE

[6] = target: FLT3 (human), P36888 [D835H]
DDR1 (human) = DDR1 (human) (UniProt Q08345)
SRC (human) = SRC (human) (UniProt P12931)
Sequence of SRC (human) (P12931 whole entry, looked up): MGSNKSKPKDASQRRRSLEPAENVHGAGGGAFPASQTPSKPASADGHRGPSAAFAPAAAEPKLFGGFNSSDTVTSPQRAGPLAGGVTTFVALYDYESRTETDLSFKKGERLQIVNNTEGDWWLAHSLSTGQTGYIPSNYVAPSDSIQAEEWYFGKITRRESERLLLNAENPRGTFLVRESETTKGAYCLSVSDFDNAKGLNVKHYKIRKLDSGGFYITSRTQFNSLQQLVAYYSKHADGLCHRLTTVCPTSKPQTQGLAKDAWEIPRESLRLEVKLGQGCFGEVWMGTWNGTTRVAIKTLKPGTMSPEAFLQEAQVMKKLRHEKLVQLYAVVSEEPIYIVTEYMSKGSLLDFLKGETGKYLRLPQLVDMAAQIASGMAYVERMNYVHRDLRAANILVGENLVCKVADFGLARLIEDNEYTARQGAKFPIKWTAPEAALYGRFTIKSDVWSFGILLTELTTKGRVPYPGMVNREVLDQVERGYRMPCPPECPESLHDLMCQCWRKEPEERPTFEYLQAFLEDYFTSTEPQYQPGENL

MAP3K2 (human) = MAP3K2 (human) (UniProt Q9Y2U5)
EPHA5 (human) = EPHA5 (human) (UniProt P54756)
PRKACA (human) = PRKACA (human) (UniProt P17612)
FES (human) = FES (human) (UniProt P07332)
MAP4K3 (human) = MAP4K3 (human) (UniProt Q8IVH8)
CSNK1D (human) = CSNK1D (human) (UniProt P48730)

Compound: COc1cc2ncnc(Oc3cccc(NC(=O)Nc4cc(C(C)(C)C(F)(F)F)on4)c3)c2cc1OC
- Kd [1]: 11 nM
- Kd (TAOK3 (human)): 1600 nM
- Kd (ERBB4 (human)): 210 nM
- Kd (MYLK (human)): 27000 nM
- Kd [2]: 2.6 nM
- Kd (PTK2 (human)): 7500 nM
- Kd [3]: 2.5 nM
- Kd (ANKK1 (human)): 4600 nM
- Kd (FGR (human)): 110 nM
- Kd (PIM3 (human)): 13000 nM
- Kd (STK33 (human)): 18000 nM
- Kd [4]: 33000 nM
- Kd (PRKACB (human)): 20000 nM
- Kd (RPS6KA4 KD2 (human)): 36000 nM
- Kd (CDK15 (human)): 430 nM
- Kd (EPHA4 (human)): 31 nM
- Kd [5]: 3.8 nM
- Kd (PIK3CA (human)): 27000 nM
- Kd (CAMK1D (human)): 3800 nM
- Kd (MERTK (human)): 1300 nM
- Kd (CIT (human)): 210 nM
- Kd (CDK16 (human)): 1600 nM
- Kd (STK35 (human)): 470 nM
- Kd (AXL (human)): 2700 nM
- Kd (TAOK1 (human)): 2100 nM
- Kd (EPHB4 (human)): 86 nM
- Kd (SIK2 (human)): 24000 nM
- Kd (IRAK3 (human)): 1400 nM
- Kd (MAPK15 (human)): 94 nM
- Kd (MET (human)): 510 nM
- Kd (ULK3 (human)): 13000 nM
- Kd (DDR2 (human)): 5.4 nM
- Kd [6]: 67 nM
- Kd (DDR1 (human)): 0.6 nM
- Kd (SRC (human)): 99 nM
- Kd (MAP3K2 (human)): 13000 nM
- Kd (EPHA5 (human)): 56 nM
- Kd (PRKACA (human)): 13000 nM
- Kd (FES (human)): 110 nM
- Kd (MAP4K3 (human)): 2300 nM
- Kd (CSNK1D (human)): 13000 nM
